# According to ChEMBL document CHEMBL1131747, “Derivation of a possible transition-state for the reaction catalysed by the enzyme estrone Sulfatase (ES)” (Bioorg Med Chem Lett, 1999):
# Molecular target: T1, Steryl-sulfatase (Homo sapiens, UniProt P08842)
# T1 sequence (P08842 whole entry): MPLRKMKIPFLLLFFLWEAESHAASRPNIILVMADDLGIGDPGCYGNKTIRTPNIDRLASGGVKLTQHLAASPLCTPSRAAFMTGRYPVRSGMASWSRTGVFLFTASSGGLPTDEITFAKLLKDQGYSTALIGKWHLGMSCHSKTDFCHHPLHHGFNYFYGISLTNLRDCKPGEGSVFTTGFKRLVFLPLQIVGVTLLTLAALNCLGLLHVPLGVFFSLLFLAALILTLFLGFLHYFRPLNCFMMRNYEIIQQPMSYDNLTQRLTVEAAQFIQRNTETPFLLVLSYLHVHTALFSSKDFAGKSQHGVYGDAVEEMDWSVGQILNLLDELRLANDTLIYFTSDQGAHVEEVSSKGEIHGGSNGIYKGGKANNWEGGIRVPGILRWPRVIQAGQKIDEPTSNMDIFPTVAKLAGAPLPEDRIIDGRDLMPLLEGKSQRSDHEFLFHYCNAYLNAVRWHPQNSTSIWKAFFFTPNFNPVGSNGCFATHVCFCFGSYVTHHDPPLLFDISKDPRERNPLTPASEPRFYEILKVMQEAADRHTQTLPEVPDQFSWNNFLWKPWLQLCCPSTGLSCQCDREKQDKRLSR
# Experiment: Inhibitory activity against estrone sulfatase enzyme
row,IC50 [nM],SMILES
1,1000,NS(=O)(=O)Oc1ccc2c(c1)CCCC2
2,55.8,CCCCCCCCCCCCCC(=O)NCCc1ccc(OS(N)(=O)=O)cc1

row,SMILES,IC50 [nM]
1,"C[C@]12CC[C@@H]3c4ccc(OS(N)(=O)=O)cc4CCC3[C@@H]1CCC2=O (single isomer, unassigned) [EMATE]",0.065
